Patent US12398121B2 (Nuvation Bio Inc., priority 2018, dated 2025)
Read-outs that look alike come from different tables or passages of the source.

How the values were obtained:
HT-29 cells = assay: Cell proliferation assay (CellTiter Glo), HT-29; format: cell-based; conditions: Homo sapiens, HT-29, 72 h, read-out: HT-29 IC50
Protocol: (§1) IC50 values were calculated and graphed using the model “log(inhibitor) vs. response—Variable slope” included in GraphPad Prism 5 (San Diego, CA). The Ki values were further calculated using the equation below where [L] was the radioligand concentration (1 nM) using in this study. Kd value was 0.332 nM. Ki=IC50/(1+[L]/Kd) c. AR transactivation: Human AR cloned into a CMV vector backbone was used for the transactivation study. HEK-293 cells were plated at 80,000 cells per well of a 24 well plate in DME+5% csFBS. Twenty four hours later, the cells were transfected using Lipofectamine (Invitrogen, Carlsbad, CA) with 0.25 μg GRE-LUC, 0.01 μg CMV-LUC (renilla luciferase) and 25 ng of the AR in OPTIMEM medium. The cells were treated 24 hrs after transfection with various ligands (10^−12 to 10^−5 M final concentrations) and luciferase assay were performed 48 hours after transfection. Firefly values were normalized to renilla luciferase values and the values were represented as relative light units (RLU). Agonist and antagonist assays for the test article were performed in the absence and in the combination with 0.1 nM R1881, respectively. Data were represented as EC50 (for agonists) and IC50 (for antagonists) obtained from four parameter logistics curve. Cell culture and proliferation assays: LNCaP, PC-3, 22RV1, MCF-7, HT-29, and HCT-116 cells were procured from American Type Culture Collection (ATCC). Cells were cultured in medium recommended by the ATCC. Cell culture medium was obtained from Fisher scientific (Waltham, MA) and serum was obtained from Hyclone (San Angelo, TX).
Cells were plated at varying density in the respective growth medium in 96 well plates. 24 hr later, cells were treated, in triplicate or quadruplicate, with test articles prepared in a range of concentrations by series dilution of DMSO stock solutions in growth medium and incubated for three to seven days. The number of viable 22RV1 and HT-29 cells was measured using CellTiter Glo assay (CTG, Promega, Madison, WI) after three days of treatment. The other types of cancer cells were re-treated at three or four days and the number of viable cells was measured using CTG assay after a total treatment time of six or seven days. Cell viability data were plotted using GraphPad Prism (GraphPad Software, Inc., San Diego, CA). In addition, a nonlinear regression model with a sigmoidal dose response and variable slope within GraphPad Prism was used to calculate the IC50 value of individual test articles. Additional cell proliferation assays: Other cancer cell lines are tested in a cell proliferation assay. For example, SK-OV-3 or OVCAR3 ovarian cancer cells are tested. Cells are cultured in medium recommended by the supplier (e.g., ATCC or JCRB Cell Bank), at 37° C. in a 5% CO2 environment. For the proliferation assay, cells are plated in the growth medium in 96 well plates. Seeding density is adjusted according to the cell type. 24 hr later, cells are treated, in triplicate or quadruplicate, with test articles prepared in a range of concentrations by series dilution of DMSO stock solutions in growth medium, and typically incubated for three to seven days, with test article-containing medium replaced after three or four days. The number of viable cells is measured using CellTiter Glo assay (CTG, Promega, Madison, WI) or similar. Cell viability data are plotted using GraphPad Prism (GraphPad Software, Inc., San Diego, CA). In addition, a nonlinear regression model with a sigmoidal dose response and variable slope within GraphPad Prism is used to calculate the IC50 value of individual test articles. Similarly, HEK-293 and HeLa calls can also be tested by methods known in the art. • f. Nuclear translocation: LNCaP cells are plated on coverslips in 24 well plates in growth medium. Twenty-four hours after plating, medium is changed to RPMI+1% csFBS and the cells are maintained in this medium for two days. Medium is replaced again and the cells are treated. […]

Human AR = target: T1, Human AR (Homo sapiens, UniProt P10275); assay: AR transactivation (antagonist mode, GRE-LUC luciferase in HEK-293 cells); format: cell-based; conditions: in combination with 0.1 nM R1881, read-out: AR Ant. IC50
T1 construct: expressed in transfected cells; host or cells: HEK-293
T1 sequence (P10275 1-920): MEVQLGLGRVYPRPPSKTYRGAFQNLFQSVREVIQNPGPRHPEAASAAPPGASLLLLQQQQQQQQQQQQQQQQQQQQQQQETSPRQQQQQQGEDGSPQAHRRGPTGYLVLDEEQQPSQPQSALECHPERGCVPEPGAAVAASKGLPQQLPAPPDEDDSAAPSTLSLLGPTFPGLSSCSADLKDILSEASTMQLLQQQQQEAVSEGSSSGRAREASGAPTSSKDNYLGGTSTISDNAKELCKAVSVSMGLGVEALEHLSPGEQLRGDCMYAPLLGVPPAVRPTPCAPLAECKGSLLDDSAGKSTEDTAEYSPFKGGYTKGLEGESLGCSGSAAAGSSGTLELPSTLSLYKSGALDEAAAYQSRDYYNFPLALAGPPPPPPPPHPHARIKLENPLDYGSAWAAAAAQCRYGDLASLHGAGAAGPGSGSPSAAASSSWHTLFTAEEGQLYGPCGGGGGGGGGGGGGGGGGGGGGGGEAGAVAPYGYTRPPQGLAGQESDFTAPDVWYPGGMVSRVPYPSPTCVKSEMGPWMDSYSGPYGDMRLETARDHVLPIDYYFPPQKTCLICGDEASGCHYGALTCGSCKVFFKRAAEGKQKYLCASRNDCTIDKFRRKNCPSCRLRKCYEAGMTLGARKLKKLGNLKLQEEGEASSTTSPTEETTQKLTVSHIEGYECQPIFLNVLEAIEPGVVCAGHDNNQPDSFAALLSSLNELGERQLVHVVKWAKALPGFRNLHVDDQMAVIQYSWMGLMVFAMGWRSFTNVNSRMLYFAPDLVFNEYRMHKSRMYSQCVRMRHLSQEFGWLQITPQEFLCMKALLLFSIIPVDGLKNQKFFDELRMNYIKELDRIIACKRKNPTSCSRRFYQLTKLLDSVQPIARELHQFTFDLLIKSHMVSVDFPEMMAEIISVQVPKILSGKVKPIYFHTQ
Protocol: as §1

[1] = cell growth inhibition, three days of treatment

With CC(O)(CS(=O)(=O)c1ccc(NCCn2cc(CN3CCN(C(=O)c4cc(Cc5n[nH]c(=O)c6ccccc56)ccc4F)CC3)nn2)cc1)C(=O)Nc1ccc(C#N)c(C(F)(F)F)c1 (stereo in doubt) [Compound 1.97, (S)-N-(4-cyano-3-(trifluoromethyl)phenyl)-3-(4-(2-(4-((4-(2-fluoro-5-((4-oxo-3,4-dihydrophthalazin-1-yl)methyl)benzoyl)piperazin-1-yl)methyl)-1H-1,2,3-triazol-1-yl)ethylamino)phenylsulfonyl)-2-hydroxy-2-methylpropanamide] as the compound, how does the IC50 (HT-29 cells) read?
The IC50 was greater than 30 µM.

What does the source list for CC1(C)C(=O)N(c2ccc(C#N)c(C(F)(F)F)c2)C(=S)N1c1ccc(C(=O)NCCCCCC(=O)N2CCN(C(=O)c3cc(Cc4n[nH]c(=O)c5ccccc45)ccc3F)CC2)c(F)c1 [Compound 1.1, 4-(3-(4-cyano-3-(trifluoromethyl)phenyl)-5,5-dimethyl-4-oxo-2-thioxoimidazolidin-1-yl)-2-fluoro-N-(6-(4-(2-fluoro-5-((4-oxo-3,4-dihydrophthalazin-1-yl)methyl)benzoyl)piperazin-1-yl)-6-oxohexyl)benzamide]?
IC50 (Human AR): 0.033 µM; IC50 (HT-29 cells): 0.3 µM

With C[C@]12CCC(=O)C[C@@H]1CC[C@@H]1[C@@H]2CC[C@]2(C)[C@@H](OCCCCCC(=O)N3CCN(C(=O)c4cc(Cc5n[nH]c(=O)c6ccccc56)ccc4F)CC3)CC[C@@H]12 [Compound 1.2, 4-(3-(4-(6-(((5S,8R,9S,10S,13S,14S,17S)-10,13-dimethyl-3-oxohexadecahydro-1H-cyclopenta[a]phenanthren-17-yl)oxy)hexanoyl)piperazine-1-carbonyl)-4-fluorobenzyl)phthalazin-1(2H)-one] as the compound, how does the IC50 (HT-29 cells) read?
Its IC50 is greater than 10 µM.

How did the IC50 (Human AR) turn out when CC1(C)C(=O)N(c2ccc(C#N)c(C(F)(F)F)c2)C(=S)N1c1ccc(C(=O)NCCCCCCNCc2ccc(-c3[nH]c4cc(F)cc5c4c3CCNC5=O)cc2)c(F)c1 [Compound 1.5, 4-(3-(4-cyano-3-(trifluoromethyl)phenyl)-5,5-dimethyl-4-oxo-2-thioxoimidazolidin-1-yl)-2-fluoro-N-(6-((4-(8-fluoro-1-oxo-2,3,4,6-tetrahydro-1H-azepino[5,4,3-cd]indol-5-yl)benzyl)amino)hexyl)benzamide] was run?
Its IC50 is 0.75 µM.

And the IC50 (HT-29 cells)?
Its IC50 is 5 µM.

Which IC50 (Human AR) does the source give for C[C@](O)(CS(=O)(=O)c1ccc(NCCCCCC(=O)N2CCN(C(=O)c3cc(Cc4n[nH]c(=O)c5ccccc45)ccc3F)CC2)cc1)C(=O)Nc1ccc(C#N)c(C(F)(F)F)c1 [Compound 1.68, (R)-N-(4-cyano-3-(trifluoromethyl)phenyl)-3-(4-(6-(4-(2-fluoro-5-((4-oxo-3,4-dihydrophthalazin-1-yl)methyl)benzoyl)piperazin-1-yl)-6-oxohexylamino)phenylsulfonyl)-2-hydroxy-2-methylpropanamide] here?
The IC50 was 3.3 µM.

And the IC50 (HT-29 cells)?
The IC50 was greater than 10 µM.

With C[C@](O)(COc1ccc(NCCCCCC(=O)N2CCN(C(=O)c3cc(Cc4n[nH]c(=O)c5ccccc45)ccc3F)CC2)cc1)C(=O)Nc1ccc(C#N)c(C(F)(F)F)c1 [Compound 1.83, (S)-N-(4-cyano-3-(trifluoromethyl)phenyl)-3-(4-(6-(4-(2-fluoro-5-((4-oxo-3,4-dihydrophthalazin-1-yl)methyl)benzoyl)piperazin-1-yl)-6-oxohexylamino)phenoxy)-2-hydroxy-2-methylpropanamide] as the compound, how does the IC50 (HT-29 cells) read?
The IC50 was greater than 10 µM.

C[C@]12CCC(=O)C[C@@H]1CC[C@@H]1[C@@H]2CC[C@]2(C)[C@@H](OCCOCC(=O)N3CCN(C(=O)c4cc(Cc5n[nH]c(=O)c6ccccc56)ccc4F)CC3)CC[C@@H]12 [Compound 1.104, 4-(3-(4-(2-(2-((5S,8R,9S,10S,13S,14S,17S)-10,13-dimethyl-3-oxohexadeca hydro-1H-cyclopenta[a]phenanthren-17-yloxy)ethoxy)acetyl)piperazine-1-carbonyl)-4-fluorobenzyl)phthalazin-1(2H)-one] was tested. Which IC50 (HT-29 cells; [1]) did it give?
Its IC50 is 9.3 µM.

With C[C@]12CCC(=O)C[C@@H]1CC[C@@H]1[C@@H]2CC[C@]2(C)[C@@H](OCC(=O)N3CCN(C(=O)c4cc(Cc5n[nH]c(=O)c6ccccc56)ccc4F)CC3)CC[C@@H]12 [Compound 1.110, 4-(3-(4-(2-((5S,8R,9S,10S,13S,14S,17S)-10,13-dimethyl-3-oxohexadecahydro-1H-cyclopenta[a]phenanthren-17-yloxy)acetyl)piperazine-1-carbonyl)-4-fluorobenzyl)phthalazin-1(2H)-one] as the compound, how does the IC50 (HT-29 cells; [1]) read?
Its IC50 is 9.5 µM.

How did the IC50 (HT-29 cells; [1]) turn out when O=C(c1ccc(OCCN2CCN(C(=O)c3cc(Cc4n[nH]c(=O)c5ccccc45)ccc3F)CC2)cc1)c1c(-c2ccc(O)cc2)sc2cc(O)ccc12 [Compound 2.13, 4-(4-fluoro-3-(4-(2-(4-(6-hydroxy-2-(4-hydroxyphenyl)benzo[b]thiophene-3-carbonyl)phenoxy)ethyl)piperazine-1-carbonyl)benzyl)phthalazin-1(2H)-one] was run?
The IC50 was 6 µM.

How did the IC50 (HT-29 cells; [1]) turn out when CCC(=C(c1ccc(O)cc1)c1ccc(OCCN2CCN(C(=O)c3cc(Cc4n[nH]c(=O)c5ccccc45)ccc3F)CC2)cc1)c1ccccc1 [Compound 2.14, 4-(4-fluoro-3-(4-(2-(4-(1-(4-hydroxyphenyl)-2-phenylbut-1-enyl)phenoxy)ethyl)piperazine-1-carbonyl)benzyl)pthalazin-1(2H)-one] was run?
Its IC50 is greater than 30 µM.
